Measurements as given in PubChem BioAssay (NCI).
Where “and” joins values, the source holds several entries; their conditions need not be identical. Identical values can stand only once.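 Compound exposure: 48 hours, 5 concentrations, 96-well plates. The concentration for 50% growth inhibition is given as GI50. The concentration for full growth arrest is given as TGI.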

What was measured:
Assay in all cases: NCI tumour cell line growth inhibition, 48 h
[1] = test system: U251 CNS
[2] = test system: HCT-15 colon
[3] = test system: HL-60(TB) leukemia
[4] = test system: SF-539 CNS
[5] = test system: SNB-75 CNS
[6] = test system: NCI-H460 lung
[7] = test system: SNB-19 CNS
[8] = test system: 786-0 renal
[9] = test system: OVCAR-3 ovarian
[10] = test system: M14 melanoma

| SMILES | GI50 [1] [µM] | TGI [1] | GI50 [2] [µM] | TGI [2] [µM] | GI50 [3] [µM] | TGI [3] | GI50 [4] [µM] | TGI [4] | GI50 [5] [µM] | TGI [5] [µM] | GI50 [6] [µM] | TGI [6] [µM] | GI50 [7] [µM] | TGI [7] [µM] | GI50 [8] [µM] | TGI [8] [µM] | GI50 [9] [µM] | TGI [9] | GI50 [10] [µM] | TGI [10] [µM] |
| --- | --- | --- | --- | --- | --- | --- | --- | --- | --- | --- | --- | --- | --- | --- | --- | --- | --- | --- | --- | --- |
| CN1C(=O)N(C)C2C1NN=c1s/c(=C\c3ccc(F)cc3)c(=O)n12 (configuration not stated) | 3.06 | > 100 µM | 0.915 | > 100 | 1.63 | 4.53 µM | 2.1 | 5.72 µM | 1.05 | 5.22 | 2.77 | > 100 | 5.57 | > 100 | 7.55 | > 100 | 1.24 | 8.09 µM | 2.24 | > 100 |
| COc1ccc(/C=C\c2cc(OC)c(O[Si](C)(C)C(C)(C)C)c(OC)c2)cc1 | – | 42.2 µM | – | – | – | – | – | > 100 µM | – | > 100 | – | > 100 | – | > 100 | – | > 100 | – | > 100 µM | – | > 100 |
| Cc1ccccc1C1=C(C(=O)Nc2ccc(Cl)c(Cl)c2)NC(=S)NC1N (configuration not stated) | – | > 100 µM | – | > 100 | – | – | – | > 100 µM | – | > 100 | – | > 100 | – | > 100 | – | > 100 | – | > 100 µM | – | > 100 |
| O=C(N/N=C(/CCN1CCCC1)CC(c1ccccc1)c1c(O)c2ccccc2oc1=O)c1ccncc1 (configuration not stated) | – | > 100 µM | – | > 100 | – | 84.8 µM | – | > 100 µM | – | > 100 | – | > 100 | – | > 100 | – | > 100 | – | > 100 µM | – | > 100 |
| NCCCCNc1ccc2c(=O)[nH][nH]c(=O)c2c1 | – | > 100 µM | – | – | – | > 100 µM | – | > 100 µM | – | > 100 | – | – | – | > 100 | – | > 100 | – | > 100 µM | – | > 100 |
| Nc1ccccc1C#C/C=C\C#Cc1ccccc1[N+](=O)[O-] | 3.72 | 18.9 µM | 0.718 | 21.7 | 1.96 | 60.7 µM | 2.17 | 10.4 µM | 13.3 | 58.3 | 3.59 | 83.1 | 19.8 | 96.2 | 12.3 | 43.2 | 4.03 | 37 µM | 8.08 | 26.9 |
| Cc1ccc(-c2csc(NC(=O)CN3CCN(c4cc5c(cc4F)c(=O)c(C(=O)O)cn5C4CC4)CC3)n2)cc1 | 0.388 | 13.4 µM | 0.441 | > 100 | 1.47 | 3.94 µM | 0.819 | 18.2 µM | 0.448 | 11.2 | 0.368 | 17.1 | 0.87 | 27 | 0.5 | 15.2 | 0.457 | 15.7 µM | 1.63 | 32.9 |
| Cc1ccc(-c2cc(-c3ccccc3)c(C#N)c(=O)n2C2OC(CO)C(O)C(O)C2O)cc1 (configuration not stated) | – | > 100 µM | – | > 100 | – | > 100 µM | – | > 100 µM | – | – | – | > 100 | – | > 100 | – | > 100 | – | > 100 µM | – | > 100 |
| Cc1cccc(C)c1NC(=O)C1C(=O)N(c2c(C)cccc2C)C(=O)/C1=N\NC(N)=S (configuration not stated) | – | > 100 µM | – | > 100 | – | > 100 µM | – | > 100 µM | – | – | – | > 100 | – | > 100 | – | > 100 | – | > 100 µM | – | > 100 |
| CC1C(=O)OCC2=CCN3CCC(OC(=O)C(C)C1(C)O)C23 (configuration not stated) | – | > 100 µM | – | > 100 | – | > 100 µM | – | > 100 µM | – | > 100 | – | > 100 | – | > 100 | – | > 100 | – | > 100 µM | – | > 100 |
| COC(=O)C(=O)C(C(=O)C(=O)Nc1cccc(C(C)=O)c1)c1nc2ccccc2[nH]c1=O (configuration not stated) | – | – | – | > 100 | – | > 100 µM | – | > 100 µM | – | > 100 | – | > 100 | – | > 100 | – | > 100 | – | > 100 µM | – | > 100 |
| COc1ccc2c(c1)/C(=C\c1c(Cl)[nH]c3ccc(OC)cc13)C(=O)N2 | 19.7 | 43.8 µM | > 100 | > 100 | 26.9 | 67.3 µM | – | – | – | – | 50.7 | > 100 | 20.6 | 64.1 | 43.7 | > 100 | 29.4 | > 100 µM | 21.9 | 39.8 |
| CCCOc1ccc2nc(NC(=O)OC)[nH]c2c1 | 0.301 | > 100 µM | 0.13 | > 100 | 0.171 | 0.681 µM | – | – | – | – | 0.324 | > 100 | 0.384 | > 100 | 0.47 | > 100 | 0.396 | > 100 µM | 0.14 | > 100 |
| NC(N)=NCCC1OC(=O)C2=C1c1c(O)ccc3nccc(c13)O2 (configuration not stated) | 56.7 | > 100 µM | > 100 | > 100 | > 100 | > 100 µM | > 100 | > 100 µM | – | – | > 100 | > 100 | 50.5 | > 100 | > 100 | > 100 | > 100 | > 100 µM | > 100 | > 100 |
| CC(=O)NC(CCCCNC(=O)NCCCl)C(=O)NCc1ccccc1 (configuration not stated) | – | > 100 µM | – | > 100 | – | > 100 µM | – | > 100 µM | – | > 100 | – | > 100 | – | > 100 | – | > 100 | – | > 100 µM | – | > 100 |
| C/C(CCc1ccccc1)=N\NC(N)=S | – | > 100 µM | – | > 100 | – | > 100 µM | – | > 100 µM | – | > 100 | – | > 100 | – | – | – | > 100 | – | > 100 µM | – | > 100 |
| N#CCCN(CCC#N)c1ccc(C(Sc2ccccc2)C(NC(=O)c2cc([N+](=O)[O-])ccc2Cl)C(=O)Sc2ccccc2)cc1 (configuration not stated) | – | 4.15 µM and 6.01 µM | 2.25 | 11.2 | 0.416 | 3.62 µM and 2.29 µM | – | 4.11 µM and 3.79 µM | 1.85 | 7.19 | – | 16.8 | 3.98 | 18.6 | – | 3.95 | 2.14 | 8.36 µM and 7.63 µM | 1.61 | 4.07 |
